In data set [1] the target is T1, TrkA (h) (Homo sapiens, UniProt P04629).
T1 construct: Recombinant Human Cytoplasmic Domain (amino acids 441-796); His tag; host or cells: insect cells
The data set can be described thus: Radiometric based mixed micelle kinase assay. Format: biochemical. The settings on record: read-out: IC50 antagonizing the TrkA kinase activity. As to the method: Compound Inhibition in a Radiometric Based Mixed Micelle Assay:
In a final reaction volume of 25 μL, TrkA (h) (3 nM) is incubated with the kinase reaction buffer (20 mM HEPES (pH 7.5), 10 mM MgCl2, 1 mM EGTA, 0.02% Brij 35, 0.02 mg/ml BSA, 0.1 mM Na3VO4, 2 mM DTT, 1% DMSO), 0.2 mg/ml substrate PolyEY(4:1) and […], and [33P-ATP] (specific activity approx. 500 cpm/pmol, concentration as required). The reaction is initiated by the addition of the MgATP mix. After incubation for at least 40 minutes at room temperature, the reaction is stopped by the addition of 5 μL of a 3% phosphoric acid solution. 10 μL of the reaction is then spotted onto a P30 filtermat and washed three times for 5 minutes in 75 mM phosphoric acid and once in methanol prior to drying and scintillation counting. TrkA: Recombinant Human Cytoplasmic Domain (amino acids 441-796), Histidine-tagged, expressed in insect cells. Activated in vitro via auto-phosphorylation. Mw=42.8 kDa. Substrates for kinases: poly(EY) for TRKA; poly(EY)(4:1) with 2 mM MnCl2, average Mw=16 kDa Standard conditions (unless otherwise specified): 30 nM TRKA, 0.2 mg/ml poly(EY)+2 mM MnCl2, and 10 μM ([γ-^33P]) ATP. Using the similar assay condition with other kinases of recombinant human cytoplasmic domain, the activities of other kinases could be also measured.

The test system of data set [2] is CCI rats. In words: Chronic constriction injury (CCI) model of neuropathic pain in rats. The data set is classed as in vivo, rat. Conditions: CCI rats after single oral dose. From the text:
Chronic Constriction Injury (CCI) Model of Neuropathic Pain in Rats.
The CCI model is one of the most commonly used mono-neuropathic pain model firstly described in details by Bennett and Xie (Bennett G J, Xie Y K. Pain. 1988; 33(1):87-107). It mimics important clinical chronic pain symptoms such as mechanical allodynia and thermal hyperalgesia. Chronic constriction injury of the sciatic nerve was produced by tying four loose ligatures around the left sciatic nerve according to the method of Bennett and Xie. […] Calibrated von Frey filaments were used to determine the lowest mechanical (tactile) threshold required to evoke a brisk paw withdrawal reflex in the rat hindpaws. Rats were allowed to acclimatize in wire mesh cages for 15-20 min prior to von Frey testing. Assessment of paw withdrawal thresholds (PWTs) using von Frey filaments was undertaken prior to CCI-surgery (pre-surgery baseline on day 0). Before the drug dosing on day 14, the pre-dose baseline was recorded for each rat. […] Drug-naïve CCI-rats (n=4-6 per group) were used. The oral vehicle was 0.5% CMC-Na/0.1% Tween 80 in distilled water. The positive control gabapentin was dissolved in the vehicle and orally given at 100 mg/kg (by oral gavage). Test compound was suspended in the vehicle and orally given at 50 mg/kg and 100 mg/kg. […]

pIC50: −log10 of the molar value.

T1 sequence (P04629 441-796): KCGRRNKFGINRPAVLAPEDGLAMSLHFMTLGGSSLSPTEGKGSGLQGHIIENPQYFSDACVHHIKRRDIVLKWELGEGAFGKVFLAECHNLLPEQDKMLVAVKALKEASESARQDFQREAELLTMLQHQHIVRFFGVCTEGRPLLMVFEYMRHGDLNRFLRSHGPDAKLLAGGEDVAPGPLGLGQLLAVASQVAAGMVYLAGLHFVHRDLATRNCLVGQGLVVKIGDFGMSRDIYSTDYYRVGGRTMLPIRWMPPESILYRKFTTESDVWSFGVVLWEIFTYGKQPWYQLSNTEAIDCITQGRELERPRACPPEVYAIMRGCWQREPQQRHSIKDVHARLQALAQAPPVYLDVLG

As for `Cc1ccc(Cl)cc1N1CCN(CCCNC(=O)c2ccc3c(c2)NC(=O)C2CCCCN32)CC1` (centres unmarked) [Compound 201, N-{3-[4-(5-chloro-2-methylphenyl)piperazin-1-yl]propyl}-6-oxo-6,6a,7,8,9,10-hexahydro-5H-pyrido[1,2-a]quinoxaline-3-carboxamide], in data set [1], the pIC50 (commonly the IC50 on a negative log10 scale, so that one unit is a factor of ten) was 7.07.
`NCC1(CC(=O)O)CCCCC1` [gabapentin]: the “Observed side effects (drowsiness, motor incoordination, other abnormality)” value in data set [2] is on record as “drowsiness or motor incoordination”.

These data come from patent publication US9738659B2, “Compositions of protein receptor tyrosine kinase inhibitors” (Purdue Pharma L.P., priority 2008, dated 2017).
